Source: US20060216327A1, “Multilayer coating for releasing biologically-active agents and method of making” (Bacterin, Inc., priority 2005, published 2006)

Assay: Bupivacaine elution profile from coated stents of Example 4 in PBS flow chamber (HPLC)
Assay type: physicochemical
Settings: coated stent of Example 4 (calcium phosphate base layer + PVA polymer layer), 10 ml PBS per day
Description: An elution analysis was performed to assay release of bupivacaine over time from the coated stents of Example 4. An 18 mm long test specimen having a known surface area was cut from one of the coated stents of Example 4 and placed in a flow chamber. For 7 days, the test specimen was bathed with 10 ml per day of a phosphate buffered saline (PBS) solution. Every 24 hours, a 100 μl sample was taken of the 10 ml of PBS effluent collected over the preceding 24 hour period. The amount of bupivacaine in a 10 μl aliquot of the sample was quantified using a reverse-phase high pressure liquid chromatography (HPLC) system including a […] silica column. A solution of 30% acetonitrile and 70% buffered acid (985 ml of HPLC-grade water, 15 ml 1.0 M HCl, and 1.38 grams monobasic NaH2PO4) was employed as the mobile phase for the HPLC analysis. The data from the HPLC analysis was then normalized against the surface area of the test specimen and 10 ml volume of PBS effluent. Each data point represents the amount of bupivacaine eluted into the PBS solution during the proceeding 24-hour period, with each data point expressed in terms of in μg of bupivacaine released per cm^2 of coated stent surface. […]

release of bupivacaine from coated stent into PBS solution (days 1-3, attributed to the polymer layer): relative burst release | release of bupivacaine from coated stent into PBS solution (days 4-7, attributed to erosion of the calcium phosphate base layer): more gradual release
SMILES: CCCCN1CCCCC1C(=O)Nc1c(C)cccc1C (centres unmarked) [bupivacaine]
